The supplement of paper PMC10627819

What was measured:
Assay in all cases: Bliss interaction score (quartile over a dose matrix) (fitness difference); higher = more antagonism (negative = synergy)
[1] = tested on: B. subtilis 168
In short: (§1)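 Fitness here means normalised growth, inferred for single drugs from the combination data. Growth was OD595 at entry into stationary phase, divided by the plate's robust no-drug mean and capped at 1. The Bliss score is observed minus expected fitness, with the expectation being the product, and its quartiles span technical, biological and donor/recipient replicates.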

[2] = tested on: S. aureus DSM 20231
In short: as §1

[3] = tested on: S. aureus Newman
In short: as §1

[4] = tested on: S. pneumoniae D39V
In short: as §1
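Note: first quartile when negative (synergy) and third quartile when positive (antagonism).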

| SMILES | Bliss interaction score [1] | Bliss interaction score [2] | Bliss interaction score [3] | Bliss interaction score [4] |
| --- | --- | --- | --- | --- |
| CN[C@H](CC(C)C)C(=O)N[C@H]1C(=O)N[C@@H](CC(N)=O)C(=O)N[C@H]2C(=O)N[C@H]3C(=O)N[C@H](C(=O)N[C@H](C(=O)O)c4cc(O)cc(O)c4-c4cc3ccc4O)[C@H](O[C@H]3C[C@](C)(N)[C@@H](O)[C@H](C)O3)c3ccc(c(Cl)c3)Oc3cc2cc(c3O[C@@H]2O[C@H](CO)[C@@H](O)[C@H](O)[C@H]2O[C@H]2C[C@](C)(NCc3ccc(-c4ccc(Cl)cc4)cc3)[C@@H](O)[C@H](C)O2)Oc2ccc(cc2Cl)[C@H]1O [Oritavancin] + CN[C@H](CC(C)C)C(=O)N[C@H]1C(=O)N[C@@H](CC(N)=O)C(=O)N[C@H]2C(=O)N[C@H]3C(=O)N[C@H](C(=O)N[C@H](C(=O)O)c4cc(O)cc(O)c4-c4cc3ccc4O)[C@H](O)c3ccc(c(Cl)c3)Oc3cc2cc(c3O[C@@H]2O[C@H](CO)[C@@H](O)[C@H](O)[C@H]2O[C@H]2C[C@](C)(N)[C@H](O)[C@H](C)O2)Oc2ccc(cc2Cl)[C@H]1O [Vancomycin] | 0.0254 | -0.0879 | -0.0787 | 0.105 |
| CN[C@H](CC(C)C)C(=O)N[C@H]1C(=O)N[C@@H](CC(N)=O)C(=O)N[C@H]2C(=O)N[C@H]3C(=O)N[C@H](C(=O)N[C@H](C(=O)O)c4cc(O)cc(O)c4-c4cc3ccc4O)[C@H](O[C@H]3C[C@](C)(N)[C@@H](O)[C@H](C)O3)c3ccc(c(Cl)c3)Oc3cc2cc(c3O[C@@H]2O[C@H](CO)[C@@H](O)[C@H](O)[C@H]2O[C@H]2C[C@](C)(NCc3ccc(-c4ccc(Cl)cc4)cc3)[C@@H](O)[C@H](C)O2)Oc2ccc(cc2Cl)[C@H]1O [Oritavancin] + CO[C@H]1/C=C/O[C@@]2(C)Oc3c(C)c(O)c4c(O)c(c(/C=N/N5CCN(C)CC5)c(O)c4c3C2=O)NC(=O)/C(C)=C\C=C\[C@H](C)[C@H](O)[C@@H](C)[C@@H](O)[C@@H](C)[C@H](OC(C)=O)[C@@H]1C [Rifampicin] | -0.0184 | -0.0199 | 0.0357 | 0.106 |
| CN[C@H](CC(C)C)C(=O)N[C@H]1C(=O)N[C@@H](CC(N)=O)C(=O)N[C@H]2C(=O)N[C@H]3C(=O)N[C@H](C(=O)N[C@H](C(=O)O)c4cc(O)cc(O)c4-c4cc3ccc4O)[C@H](O[C@H]3C[C@](C)(N)[C@@H](O)[C@H](C)O3)c3ccc(c(Cl)c3)Oc3cc2cc(c3O[C@@H]2O[C@H](CO)[C@@H](O)[C@H](O)[C@H]2O[C@H]2C[C@](C)(NCc3ccc(-c4ccc(Cl)cc4)cc3)[C@@H](O)[C@H](C)O2)Oc2ccc(cc2Cl)[C@H]1O [Oritavancin] + COc1cc(Cc2cnc(N)nc2N)cc(OC)c1OC [Trimethoprim] | 0.0391 | -0.0406 | -0.111 | 0.078 |
| CN[C@H](CC(C)C)C(=O)N[C@H]1C(=O)N[C@@H](CC(N)=O)C(=O)N[C@H]2C(=O)N[C@H]3C(=O)N[C@H](C(=O)N[C@H](C(=O)O)c4cc(O)cc(O)c4-c4cc3ccc4O)[C@H](O[C@H]3C[C@](C)(N)[C@@H](O)[C@H](C)O3)c3ccc(c(Cl)c3)Oc3cc2cc(c3O[C@@H]2O[C@H](CO)[C@@H](O)[C@H](O)[C@H]2O[C@H]2C[C@](C)(NCc3ccc(-c4ccc(Cl)cc4)cc3)[C@@H](O)[C@H](C)O2)Oc2ccc(cc2Cl)[C@H]1O [Oritavancin] + COc1ccc(C[C@H](N)C(=O)N[C@H]2[C@@H](O)[C@H](n3cnc4c(N(C)C)ncnc43)O[C@@H]2CO)cc1 [Puromycin] | 0.0232 | -0.0699 | -0.0754 | 0.0762 |
| CN[C@H](CC(C)C)C(=O)N[C@H]1C(=O)N[C@@H](CC(N)=O)C(=O)N[C@H]2C(=O)N[C@H]3C(=O)N[C@H](C(=O)N[C@H](C(=O)O)c4cc(O)cc(O)c4-c4cc3ccc4O)[C@H](O[C@H]3C[C@](C)(N)[C@@H](O)[C@H](C)O3)c3ccc(c(Cl)c3)Oc3cc2cc(c3O[C@@H]2O[C@H](CO)[C@@H](O)[C@H](O)[C@H]2O[C@H]2C[C@](C)(NCc3ccc(-c4ccc(Cl)cc4)cc3)[C@@H](O)[C@H](C)O2)Oc2ccc(cc2Cl)[C@H]1O [Oritavancin] + C[n+]1ccc(-c2cc[n+](C)cc2)cc1 [Paraquat] | -0.0221 | -0.0738 | -0.065 | -0.044 |
| CN[C@H](CC(C)C)C(=O)N[C@H]1C(=O)N[C@@H](CC(N)=O)C(=O)N[C@H]2C(=O)N[C@H]3C(=O)N[C@H](C(=O)N[C@H](C(=O)O)c4cc(O)cc(O)c4-c4cc3ccc4O)[C@H](O[C@H]3C[C@](C)(N)[C@@H](O)[C@H](C)O3)c3ccc(c(Cl)c3)Oc3cc2cc(c3O[C@@H]2O[C@H](CO)[C@@H](O)[C@H](O)[C@H]2O[C@H]2C[C@](C)(NCc3ccc(-c4ccc(Cl)cc4)cc3)[C@@H](O)[C@H](C)O2)Oc2ccc(cc2Cl)[C@H]1O [Oritavancin] + Cc1cc(NS(=O)(=O)c2ccc(N)cc2)no1 [Sulfamethoxazol] | -0.0377 | -0.0575 | 0.0801 | -0.0491 |
| CN[C@H](CC(C)C)C(=O)N[C@H]1C(=O)N[C@@H](CC(N)=O)C(=O)N[C@H]2C(=O)N[C@H]3C(=O)N[C@H](C(=O)N[C@H](C(=O)O)c4cc(O)cc(O)c4-c4cc3ccc4O)[C@H](O[C@H]3C[C@](C)(N)[C@@H](O)[C@H](C)O3)c3ccc(c(Cl)c3)Oc3cc2cc(c3O[C@@H]2O[C@H](CO)[C@@H](O)[C@H](O)[C@H]2O[C@H]2C[C@](C)(NCc3ccc(-c4ccc(Cl)cc4)cc3)[C@@H](O)[C@H](C)O2)Oc2ccc(cc2Cl)[C@H]1O [Oritavancin] + Cc1onc(-c2ccccc2)c1C(=O)N[C@@H]1C(=O)N2[C@@H]1SC(C)(C)[C@@H]2C(=O)O [Oxacillin] | 0.0256 | -0.0461 | -0.0656 | -0.167 |
| CN[C@H](CC(C)C)C(=O)N[C@H]1C(=O)N[C@@H](CC(N)=O)C(=O)N[C@H]2C(=O)N[C@H]3C(=O)N[C@H](C(=O)N[C@H](C(=O)O)c4cc(O)cc(O)c4-c4cc3ccc4O)[C@H](O[C@H]3C[C@](C)(N)[C@@H](O)[C@H](C)O3)c3ccc(c(Cl)c3)Oc3cc2cc(c3O[C@@H]2O[C@H](CO)[C@@H](O)[C@H](O)[C@H]2O[C@H]2C[C@](C)(NCc3ccc(-c4ccc(Cl)cc4)cc3)[C@@H](O)[C@H](C)O2)Oc2ccc(cc2Cl)[C@H]1O [Oritavancin] + Cn1nnc(-c2ccc(-c3ccc(N4C[C@H](CO)OC4=O)cc3F)cn2)n1 [Tedizolid] | -0.0251 | -0.0541 | -0.0895 | -0.0205 |
